Results as given in patent publication US4349526A, “Process for the production of hydrogen peroxide” (Degussa Aktiengesellschaft, priority 1980, dated 1982).

Key:
[1] = Oxidation breakdown on gassing with dry air at 140° C., 2.5 hours; assay type: physicochemical; conditions: 36 liters dry air per hour, 150 ml urea, decrease of urea based on starting content
Method: In a gassing apparatus equipped with gassing frit and intensive condenser in each case gassing was carried out with 150 ml of the ureas set forth in Table 4 using 36 liters of dry air per hour at a temperature of 140° C. for 2.5 hours. During the test half hourly samples were drawn off and the oxidative breakdown followed by means of capillary gas chromatography. As a measure for the oxidative breakdown the decrease of the amount of urea in percentage based on the starting urea content is used.

Density = assay type: physicochemical
[2] = Oxidation resistance of hydroquinone solvents, gassing with dry air at 140° C., 50 hours; assay type: physicochemical; conditions: 36 liters dry air per hour, 150 ml solvent; gas chromatography
Method: The hydroquinone solvent content in percent based on the starting hydroquinone content was determined gas chromatographically and set forth in Table 5.

Viscosity = assay type: physicochemical
[3] = Mutual solubility of urea and water; assay type: physicochemical
[4] = in words; German AS; cited from earlier work

Compound	Oxidation Breakdown After 2.5 hours [1] [%]	Hydroquinone Solvent Content (%) after 50 hours Gassing at 140° C. [2] [%]	also measured
CN(C(=O)N1CCOCC1)c1ccccc1 [N'-methyl-N'-phenylcarbamoyl-N-morpholine]	0	–	–
CCC(C)N(C)C(=O)N(C)c1ccccc1 (stereo not drawn) [N,N'-dimethyl-N-s-butyl-N'-phenylurea]	0	–	–
CN(C)C(=O)N(C)c1ccccc1 [N,N,N'-trimethyl-N'-phenylurea]	0	–	Density (50° C.) (Density; Table 2): 1.0392 g/mL
CC(C)N(C(=O)N(C)c1ccccc1)C(C)C [N,N-di-i-propyl-N'-methyl-N'-phenylurea]	0	–	–
CCCCN(CCCC)C(=O)N(C)c1ccccc1 [N,N-dibutyl-N'-methyl-N'-phenylurea]	0	100.0	Density (50° C.) (Density; Table 2): 0.9499 g/mL; Density (50° C.) (Density; Table 3): 0.950 g/mL; Viscosity (50° C.) (Viscosity): 9.2 cP; Solubility in Water at 20° C. [3]: 0.01%
CCCCN(CCCC)C(=O)N(CC)CC [N,N-diethyl-N',N'-dibutylurea, reference compound]	9.2	86.6	–
CCN(CC)C(=O)N(C)c1ccccc1 [N,N-diethyl-N'-methyl-N'-phenylurea]	0	–	Density (50° C.) (Density; Table 2): 0.9941 g/mL
CC(C)N(C(=O)N(C)C)C(C)C [N,N-dimethyl-N'-di-i-propylurea, reference compound]	2.6	–	–
CCCN(CCC)C(=O)N(C)c1ccccc1 [N,N-dipropyl-N'-methyl-N'-phenylurea]	0	100.0	Density (50° C.) (Density; Table 2): 0.9690 g/mL
CC(C)CC(O)CC(C)C [di-i-butylcarbinol]	–	16.6	–
CC(C)(C)c1ccccc1 [tert. butyl benzene]	–	–	oxidation resistance [4]: oxidation resistant
CCCCC(CC)COP(=O)(OCC(CC)CCCC)OCC(CC)CCCC (stereo not drawn) [tris-2-ethylhexyl phosphate]	–	88.3	–
N,N-di-i-propyl-N'-phenylurea	–	100.0	–
methylcyclohexyl acetate	–	77.4	–
